From US9975888B2, “Aryl linked imidazole and triazole derivatives and methods of use thereof for improving the pharmacokinetics of a drug” (MERCK SHARP & DOHME CORP., priority 2013, dated 2018)
Like-named read-outs stand apart in the source and are kept apart here.

What was measured:
Type in all cases: biochemical
CYP2C9 = molecular target: T1, CYP2C9 (Homo sapiens, UniProt P11712); assay: Cocktail assay for CYPs, diclofenac 4′-hydroxylation (CYP2C9), human liver microsomes; conditions: 0.1 mg/mL human liver microsomes, 10 min at 37° C.
T1 construct: 0.1 mg/mL protein human liver microsomes (BD Gentest); tissue BD Gentest; host or cells: human liver microsomes
T1 sequence (P11712 whole entry): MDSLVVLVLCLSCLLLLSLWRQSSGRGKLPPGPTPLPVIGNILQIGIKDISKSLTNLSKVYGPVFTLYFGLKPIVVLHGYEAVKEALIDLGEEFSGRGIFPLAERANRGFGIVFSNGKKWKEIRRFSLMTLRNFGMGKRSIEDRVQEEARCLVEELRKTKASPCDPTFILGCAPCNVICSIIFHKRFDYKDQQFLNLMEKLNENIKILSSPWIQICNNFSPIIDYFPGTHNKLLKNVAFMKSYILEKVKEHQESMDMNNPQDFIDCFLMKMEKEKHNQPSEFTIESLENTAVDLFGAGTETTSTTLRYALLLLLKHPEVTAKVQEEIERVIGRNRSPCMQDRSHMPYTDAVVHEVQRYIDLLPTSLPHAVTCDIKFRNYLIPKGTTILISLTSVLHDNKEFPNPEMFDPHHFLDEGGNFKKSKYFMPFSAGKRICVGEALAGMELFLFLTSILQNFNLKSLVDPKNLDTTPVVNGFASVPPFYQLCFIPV
Summary of the method: (§1)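 Pooled human liver microsomes (0.1 mg/mL) with probe cocktail incl. 5 μM diclofenac (CYP2C9) and 30 μM mephenytoin (CYP2C19), 1 mM NADPH, pH 7.4 phosphate buffer, 10 min at 37° C. Metabolites quantified by LC/MS/MS against internal standard; % inhibition versus no-inhibitor control, IC50 by non-linear regression.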

CYP2C19 = molecular target: T2, CYP2C19 (Homo sapiens, UniProt P33261); assay: Cocktail assay for CYPs, mephenytoin 4′-hydroxylation (CYP2C19), human liver microsomes; conditions: 0.1 mg/mL human liver microsomes, 10 min at 37° C.
T2 construct: 0.1 mg/mL protein human liver microsomes (BD Gentest); tissue BD Gentest; host or cells: human liver microsomes
T2 sequence (P33261 whole entry): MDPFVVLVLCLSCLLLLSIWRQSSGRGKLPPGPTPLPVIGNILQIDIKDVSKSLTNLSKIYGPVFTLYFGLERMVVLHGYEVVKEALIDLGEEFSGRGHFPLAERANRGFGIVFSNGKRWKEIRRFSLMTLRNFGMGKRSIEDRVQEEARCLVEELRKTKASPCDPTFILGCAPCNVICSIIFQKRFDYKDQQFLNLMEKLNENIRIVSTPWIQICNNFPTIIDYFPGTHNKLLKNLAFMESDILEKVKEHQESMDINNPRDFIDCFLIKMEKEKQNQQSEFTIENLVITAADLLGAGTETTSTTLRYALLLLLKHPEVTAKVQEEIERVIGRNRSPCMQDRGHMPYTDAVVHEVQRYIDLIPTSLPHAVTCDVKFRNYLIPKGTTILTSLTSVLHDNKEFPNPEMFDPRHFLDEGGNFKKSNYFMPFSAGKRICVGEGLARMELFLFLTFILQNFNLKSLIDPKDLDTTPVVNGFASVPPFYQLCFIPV
Summary of the method: as §1

CYP1A2 = molecular target: T3, CYP1A2 (Homo sapiens, UniProt P05177); assay: Cocktail assay for CYPs, phenacetin O-deethylation (CYP1A2), human liver microsomes; conditions: 10 μM phenacetin, 0.1 mg/mL human liver microsomes, 10 min at 37° C.; read-out: CYP IC50 (nM) 1A2
T3 construct: 0.1 mg/mL protein human liver microsomes (BD Gentest); tissue BD Gentest; host or cells: human liver microsomes
T3 sequence (P05177 1-516): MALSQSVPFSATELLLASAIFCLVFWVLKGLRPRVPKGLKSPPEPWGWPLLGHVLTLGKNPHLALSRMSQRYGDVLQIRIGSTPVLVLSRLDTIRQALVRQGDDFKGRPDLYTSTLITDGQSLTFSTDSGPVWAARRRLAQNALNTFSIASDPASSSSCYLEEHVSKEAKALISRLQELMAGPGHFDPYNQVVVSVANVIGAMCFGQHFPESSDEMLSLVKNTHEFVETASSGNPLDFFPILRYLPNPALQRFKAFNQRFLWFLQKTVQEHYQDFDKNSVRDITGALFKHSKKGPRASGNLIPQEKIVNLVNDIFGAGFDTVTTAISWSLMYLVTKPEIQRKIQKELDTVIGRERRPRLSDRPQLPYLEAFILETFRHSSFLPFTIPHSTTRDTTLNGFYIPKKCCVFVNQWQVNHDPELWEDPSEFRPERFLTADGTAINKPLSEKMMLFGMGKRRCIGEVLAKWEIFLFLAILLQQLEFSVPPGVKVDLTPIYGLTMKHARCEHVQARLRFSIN
Summary of the method: (§2)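 Pooled human liver microsomes (0.1 mg/mL) with a probe cocktail of 10 μM phenacetin, 5 μM dextromethorphan and 2 μM midazolam plus NADPH, pH 7.4, 10 min at 37° C. Each metabolite was quantified by LC/MS/MS against a tolbutamide internal standard. IC50 came from % inhibition at 6 concentrations (e.g. 0.0032–10 μM) by non-linear regression.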

CYP3A4 [1] = molecular target: T4, CYP3A4 (Homo sapiens, UniProt P08684); assay: Cocktail assay for CYPs, midazolam 1′-hydroxylation (CYP3A4), human liver microsomes; set-up: 0.1 mg/mL protein human liver microsomes (BD Gentest); tissue BD Gentest; host or cells: human liver microsomes; conditions: 2 μM midazolam, 0.1 mg/mL human liver microsomes, 10 min at 37° C.; read-out: CYP IC50 (nM) 3A4 (MDZ)
Summary of the method: as §2
Target sequence in this assay (P08684 whole entry): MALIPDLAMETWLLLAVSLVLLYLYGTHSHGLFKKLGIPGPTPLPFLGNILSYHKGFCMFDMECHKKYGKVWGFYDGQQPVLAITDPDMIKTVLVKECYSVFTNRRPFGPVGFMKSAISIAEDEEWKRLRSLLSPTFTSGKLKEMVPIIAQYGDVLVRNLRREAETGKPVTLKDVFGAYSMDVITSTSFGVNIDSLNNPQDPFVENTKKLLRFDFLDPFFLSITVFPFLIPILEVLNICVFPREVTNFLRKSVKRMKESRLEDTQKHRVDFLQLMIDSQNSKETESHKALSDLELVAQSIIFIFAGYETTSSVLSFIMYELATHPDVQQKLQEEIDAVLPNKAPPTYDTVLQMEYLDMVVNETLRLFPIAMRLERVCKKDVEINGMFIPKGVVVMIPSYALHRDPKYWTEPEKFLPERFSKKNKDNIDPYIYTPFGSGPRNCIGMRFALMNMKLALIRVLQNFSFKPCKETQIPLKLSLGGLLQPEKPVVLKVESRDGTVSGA

CYP3A4 [2] = molecular target: T4, CYP3A4; assay: IC50 vs CYP3A by inhibition of lopinavir metabolism in human liver microsomes; set-up: 0.01 mg/mL protein human liver microsomes (BD Gentest); tissue BD Gentest; host or cells: human liver microsomes; conditions: 1.5 μM lopinavir, 0.01 mg/mL human liver microsomes, 8 min at 37° C.; read-out: CYP IC50 (nM) 3A4 (LPV)
Summary of the method: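 Human liver microsomes (0.01 mg/mL) with 1.5 μM lopinavir, 1 mM NADPH, 3.3 mM MgCl2 in 100 mM potassium phosphate pH 7.4, 8 min at 37 °C, six compound concentrations. Summed M2/M3/M4 hydroxy metabolites quantified by LC/MS/MS against tolbutamide; % inhibition normalised between no-inhibitor and 5 μM ketoconazole controls, IC50 by non-linear regression.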
Target sequence in this assay (P08684 2-503): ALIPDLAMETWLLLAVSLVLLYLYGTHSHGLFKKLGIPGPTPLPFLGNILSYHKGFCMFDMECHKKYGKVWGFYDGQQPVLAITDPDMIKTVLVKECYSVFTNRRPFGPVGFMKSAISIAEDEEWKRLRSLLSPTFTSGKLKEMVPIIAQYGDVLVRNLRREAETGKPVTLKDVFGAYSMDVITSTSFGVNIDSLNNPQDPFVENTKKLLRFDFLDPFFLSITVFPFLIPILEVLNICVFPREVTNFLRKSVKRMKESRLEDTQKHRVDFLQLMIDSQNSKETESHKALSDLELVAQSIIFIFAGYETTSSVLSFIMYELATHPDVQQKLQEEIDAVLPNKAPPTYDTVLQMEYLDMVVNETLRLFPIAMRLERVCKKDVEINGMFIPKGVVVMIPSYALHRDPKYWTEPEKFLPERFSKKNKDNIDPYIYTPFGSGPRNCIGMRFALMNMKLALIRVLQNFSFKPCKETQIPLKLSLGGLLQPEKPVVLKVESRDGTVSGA

CYP2D6 = molecular target: T5, CYP2D6 (Homo sapiens, UniProt P10635); assay: Cocktail assay for CYPs, dextromethorphan O-demethylation (CYP2D6), human liver microsomes; conditions: 5 μM dextromethorphan, 0.1 mg/mL human liver microsomes, 10 min at 37° C.; read-out: CYP IC50 (nM) 2D6
T5 construct: 0.1 mg/mL protein human liver microsomes (BD Gentest); tissue BD Gentest; host or cells: human liver microsomes
T5 sequence (P10635 whole entry): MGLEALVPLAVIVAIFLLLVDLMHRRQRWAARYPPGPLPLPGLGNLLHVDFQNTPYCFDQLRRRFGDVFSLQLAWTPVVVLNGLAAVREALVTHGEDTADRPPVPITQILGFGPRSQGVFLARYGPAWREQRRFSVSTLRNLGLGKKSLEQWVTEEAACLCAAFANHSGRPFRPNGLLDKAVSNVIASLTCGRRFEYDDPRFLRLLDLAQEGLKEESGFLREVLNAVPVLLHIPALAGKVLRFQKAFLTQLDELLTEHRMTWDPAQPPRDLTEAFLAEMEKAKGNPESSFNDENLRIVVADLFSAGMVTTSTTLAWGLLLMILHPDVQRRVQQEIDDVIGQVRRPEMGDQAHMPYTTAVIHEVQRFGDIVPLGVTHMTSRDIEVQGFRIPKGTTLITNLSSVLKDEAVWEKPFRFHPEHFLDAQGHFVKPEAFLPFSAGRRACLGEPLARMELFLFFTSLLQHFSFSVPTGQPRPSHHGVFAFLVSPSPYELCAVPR
Summary of the method: as §2

[3] = 5 μM diclofenac, read-out: CYP IC50 (nM) 2C9
[4] = 30 μM mephenytoin, read-out: CYP IC50 (nM) 2C19

Row | SMILES | IC50 (CYP2C9; [3]) [nM] | IC50 (CYP2C19; [4]) [nM] | IC50 (CYP1A2) [nM] | IC50 (CYP3A4 [1]) [nM] | IC50 (CYP3A4 [2]) [nM] | IC50 (CYP2D6) [nM] | IC50 (CYP2C9; CYP IC50 (nM) 2C9, 5 μM diclofenac) [nM] | IC50 (CYP2C19; CYP IC50 (nM) 2C19, 30 μM mephenytoin) [nM]
1 | COc1ccc(OC)c(S(=O)(=O)N2CCCC2c2cccc(-c3cncn3CCc3ccc(F)cc3)c2)c1 (single isomer, unassigned) [Compound 53b, (R or S)-5-(3-(1-((2,5-Dimethoxy-phenyl)sulfonyl)pyrrolidin-2-yl)phenyl)-1-(4-fluorophenethyl)-1H-imidazole] | 216 | 149 | 1470 | 5.47 | 2.1 | 2330 |  | 
2 | CC(C)(C)OC(=O)N1CCCC1c1ccccc1-c1cncn1CCc1ccc(F)cc1 (stereo not drawn) [Compound 38, tert-butyl 2-(2-(1-(4-fluorophenethyl)-1H-imidazol-5-yl)phenyl) pyrrolidine-1-carboxylate] | 1770 | 2300 | 3350 | 6.7 | 5.5 | 6860 |  | 
3 | O=S(=O)(c1cnc(Cl)c(Br)c1)N1CCCC1c1cccc(-c2cncn2CCc2ccc(F)cc2)c1 (stereo not drawn) [Compound 54, 3-Bromo-2-chloro-5-((2-(3-(1-(4-fluorophenethyl)-1H-imidazol-5-yl)phenyl)pyrrolidin-1-yl)sulfonyl) pyridine] | 422 | 109 | 1240 | 13.9 | 3.2 | 1150 |  | 
4 | O=C(Oc1ccc(Cl)cc1)N1CCCC1c1ccccc1-c1cncn1CCc1ccc(F)cc1 (stereo not drawn) [Compound 36, 4-chlorophenyl 2-(2-(1-(4-fluorophenethyl)-1H-imidazol-5-yl)phenyl) pyrrolidine-1-carboxylate] | 1900 | 1680 | 7690 | 19.4 | 7 | 3700 |  | 
5 | C[C@H](c1ccc(F)cc1)n1cncc1-c1ccc2c(c1)CN(S(=O)(=O)c1cnc(N)s1)CC2 [Compound 2, (R)-5-((7-(1-(1-(4-fluorophenyl)ethyl)-1H-imidazol-5-yl)-3,4-dihydroisoquinolin-2(1H)-yl)sulfonyl)thiazol-2-amine] | 505 | 121 | 2610 | 39 | 17 | 288 |  | 
6 | O=C(C1CC1)N1CCCC1c1ccccc1-c1cncn1CCc1ccc(F)cc1 (single isomer, unassigned) [Compound 44a, (R or S)-cyclopropyl(2-(2-(1-(4-fluorophenethyl)-1H-imidazol-5-yl)phenyl)pyrrolidin-1-yl)methanone] | > 10000 | 6520 | > 10000 | 46.6 | 20.1 | > 10000 |  | 
7 | CC(=O)Nc1ncc(S(=O)(=O)N2CCCC2c2ccccc2-c2cncn2CCc2ccc(F)cc2)s1 (stereo not drawn) [Compound 21, N-(5-((2-(2-(1-(4-fluorophenethyl)-1H-imidazol-5-yl)phenyl)pyrrolidin-1-yl)sulfonyl)thiazol-2-yl) acetamide] | 4410 | 4190 | 5890 | 13.7 | 5.6 | 4050 |  | 
8 | CC(=O)Nc1ncc(S(=O)(=O)NCc2ccc(-c3cncn3CCc3ccc(F)cc3)cn2)s1 [Compound 11, N-(5-(N-((5-(1-(4-fluorophenethyl)-1H-imidazol-5-yl)pyridin-2-yl)methyl)sulfamoyl)thiazol-2-yl)acetamide] | 7470 | 912 | > 10000 | 197 | > 100 | 8390 |  | 
9 | O=C(C1CCOCC1)N1CCCC1c1cccc(-c2cncn2CCc2ccc(F)cc2)c1 (single isomer, unassigned) [Compound 49a, (R or S)-(2-(3-(1-(4-fluorophenethyl)-1H-imidazol-5-yl)phenyl)pyrrolidin-1-yl)(tetrahydro-2H-pyran-4-yl)methanone] | 9740 | 3830 | > 10000 | 30.1 | 29.6 | 4700 |  | 
10 | CC(=O)Nc1ncc(S(=O)(=O)N2CCc3cc(-c4cncn4CCc4ccc(F)cc4)ccc3C2)s1 [Compound 1, N-(5-((6-(1-(4-fluorophenethyl)-1H-imidazol-5-yl)-3,4-dihydroisoquinolin-2(1H)-yl)sulfonyl)thiazol-2-yl)acetamide] | 10 | 44 | 1450 | 11 | 2.3 | 765 |  | 
11 | O=S(=O)(c1ccc(N2CCC(O)CC2)nc1)N1CCCC1c1cccc(-c2cncn2CCc2ccc(F)cc2)c1 (single isomer, unassigned) [Compound 57a, (R or S)-1-(5-((2-(3-(1-(4-fluorophenethyl)-1H-imidazol-5-yl)phenyl)pyrrolidin-1-yl)sulfonyl)pyridin-2-yl) piperidin-4-ol] | 365 | 331 | 367 | 10.4 | 3.7 | 2200 |  | 
12 | CC(=O)Nc1ncc(S(=O)(=O)N2CCCC2c2ccc(-c3cncn3CCc3ccc(F)cc3)cc2)s1 (stereo not drawn) [Compound 8, N-(5-((2-(4-(1-(4-fluorophenethyl)-1H-imidazol-5-yl)phenyl)pyrrolidin-1-yl)sulfonyl)thiazol-2-yl)acetamide] | 565 | 281 | 8560 | 4.4 | 1.9 | 1200 |  | 
13 | C[C@H](NS(=O)(=O)c1cnc(N2CCN3C[C@H](O)C[C@H]3C2)s1)c1ccccc1-c1cncn1CCc1ccc(F)cc1 [Compound 6b, N-((S)-1-(2-(1-(4-fluorophenethyl)-1H-imidazol-5-yl)phenyl)ethyl)-2-((7R,8aS)-7-hydroxy-hexahydro-pyrrolo[1,2-a]pyrazin-2(1H)-yl)thiazole-5-sulfonamide] |  |  | > 10000 | 30 | 40.3 | 3500 | 5450 | > 10000
14 | CC(=O)Nc1ncc(S(=O)(=O)NC(C)(C)c2ccccc2-c2cncn2CCc2ccc(F)cc2)s1 [Compound 7, N-(5-(N-(2-(2-(1-(4-fluorophenethyl)-1H-imidazol-5-yl)phenyl)propan-2-yl)sulfamoyl)thia-zol-2-yl)acetamide] | 5990 | 3180 | 6070 | 22.9 | 10.6 | 2880 |  | 
15 | CS(=O)(=O)N1CCCC1c1cccc(-c2cncn2CCc2ccc(F)cc2)c1 (stereo not drawn) [Compound 51, 1-(4-fluorophenethyl)-5-(3-(1-(methylsulfonyl)pyrrolidin-2-yl)phenyl)-1H-imidazole] | 4640 | 2110 | 1160 | 22.6 | 34.7 | 6780 |  | 
16 | CC(C)OC(=O)N1CCCC1c1cccc(-c2cncn2CCc2ccc(F)cc2)c1 (stereo not drawn) [Compound 56, Isopropyl 2-(3-(1-(4-fluorophenethyl)-1H-imidazol-5-yl)phenyl) pyrrolidine-1-carboxylate] | 798 | 452 | 3400 | 18.8 | 11.8 | 4150 |  | 
